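Compound exposure: 48 hours, 5 concentrations, 96-well plates. At the GI50, growth is halved. The concentration for full growth arrest is given as TGI.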
Columns and labels:
Assay in all cases: growth of human tumour cells (NCI), 48 h
786-0 renal = test system: 786-0 renal
A498 renal = test system: A498 renal
A549 NSCLC = test system: A549 NSCLC
ACHN renal = test system: ACHN renal
BT-549 breast = test system: BT-549 breast
CAKI-1 renal = test system: CAKI-1 renal
CCRF-CEM leukemia = test system: CCRF-CEM leukemia
COLO 205 colon = test system: COLO 205 colon
DU-145 prostate = test system: DU-145 prostate
EKVX NSCLC = test system: EKVX NSCLC
HCC-2998 colon = test system: HCC-2998 colon
HCT-116 colon = test system: HCT-116 colon
HCT-15 colon = test system: HCT-15 colon
HL-60(TB) leukemia = test system: HL-60(TB) leukemia
HOP-62 NSCLC = test system: HOP-62 NSCLC
HOP-92 NSCLC = test system: HOP-92 NSCLC
HS 578T breast = test system: HS 578T breast
HT29 colon = test system: HT29 colon
IGROV1 ovarian = test system: IGROV1 ovarian
K-562 leukemia = test system: K-562 leukemia
KM12 colon = test system: KM12 colon
LOX IMVI melanoma = test system: LOX IMVI melanoma
M14 melanoma = test system: M14 melanoma
MALME-3M melanoma = test system: MALME-3M melanoma
MCF7 breast = test system: MCF7 breast
MDA-MB-231 breast = test system: MDA-MB-231 breast
MDA-MB-435 = test system: MDA-MB-435
MOLT-4 leukemia = test system: MOLT-4 leukemia
NCI-H226 lung = test system: NCI-H226 lung
NCI-H23 lung = test system: NCI-H23 lung
NCI-H460 lung = test system: NCI-H460 lung
NCI-H522 lung = test system: NCI-H522 lung
NCI/ADR-RES ovarian = test system: NCI/ADR-RES ovarian
OVCAR-3 ovarian = test system: OVCAR-3 ovarian
OVCAR-4 ovarian = test system: OVCAR-4 ovarian
OVCAR-5 ovarian = test system: OVCAR-5 ovarian
OVCAR-8 ovarian = test system: OVCAR-8 ovarian
PC-3 prostate = test system: PC-3 prostate
RPMI-8226 leukemia = test system: RPMI-8226 leukemia
RXF 393 renal = test system: RXF 393 renal
SF-268 CNS = test system: SF-268 CNS
SF-295 CNS = test system: SF-295 CNS
SF-539 CNS = test system: SF-539 CNS
SK-MEL-2 melanoma = test system: SK-MEL-2 melanoma
SK-MEL-28 melanoma = test system: SK-MEL-28 melanoma
SK-MEL-5 melanoma = test system: SK-MEL-5 melanoma
SK-OV-3 ovarian = test system: SK-OV-3 ovarian
SN12C renal = test system: SN12C renal
SNB-19 CNS = test system: SNB-19 CNS
SNB-75 CNS = test system: SNB-75 CNS
SR leukemia = test system: SR leukemia
SW-620 colon = test system: SW-620 colon
T-47D breast = test system: T-47D breast
TK-10 renal = test system: TK-10 renal
U251 CNS = test system: U251 CNS
UACC-257 melanoma = test system: UACC-257 melanoma
UACC-62 melanoma = test system: UACC-62 melanoma
UO-31 renal = test system: UO-31 renal

SMILES: COc1cc(Nc2ncc(-c3ccccc3)o2)cc(OC)c1
- GI50 (786-0 renal): > 25 µM
- TGI (786-0 renal): > 25 µM
- GI50 (A498 renal): 5.57 µM
- TGI (A498 renal): > 25 µM
- GI50 (A549 NSCLC): > 25 µM
- TGI (A549 NSCLC): > 25 µM
- GI50 (ACHN renal): 17.4 µM
- TGI (ACHN renal): > 25 µM
- GI50 (BT-549 breast): > 25 µM
- TGI (BT-549 breast): > 25 µM
- GI50 (CAKI-1 renal): > 19.2 µM
- TGI (CAKI-1 renal): > 25 µM
- GI50 (CCRF-CEM leukemia): > 25 µM
- TGI (CCRF-CEM leukemia): > 25 µM
- GI50 (COLO 205 colon): > 25 µM
- TGI (COLO 205 colon): > 25 µM
- GI50 (DU-145 prostate): > 25 µM
- TGI (DU-145 prostate): > 25 µM
- GI50 (EKVX NSCLC): > 25 µM
- TGI (EKVX NSCLC): > 25 µM
- GI50 (HCC-2998 colon): > 25 µM
- TGI (HCC-2998 colon): > 25 µM
- GI50 (HCT-116 colon): > 25 µM
- TGI (HCT-116 colon): > 25 µM
- GI50 (HCT-15 colon): 18.6 µM
- TGI (HCT-15 colon): > 25 µM
- GI50 (HL-60(TB) leukemia): > 25 µM
- TGI (HL-60(TB) leukemia): > 25 µM
- GI50 (HOP-62 NSCLC): > 25 µM
- TGI (HOP-62 NSCLC): > 25 µM
- GI50 (HOP-92 NSCLC): > 25 µM
- TGI (HOP-92 NSCLC): > 25 µM
- GI50 (HS 578T breast): 1.39 µM
- TGI (HS 578T breast): > 9.65 µM
- GI50 (HT29 colon): > 25 µM
- TGI (HT29 colon): > 25 µM
- GI50 (IGROV1 ovarian): > 25 µM
- TGI (IGROV1 ovarian): > 25 µM
- GI50 (K-562 leukemia): > 22.5 µM
- TGI (K-562 leukemia): > 25 µM
- GI50 (KM12 colon): 1.59 µM
- TGI (KM12 colon): > 25 µM
- GI50 (LOX IMVI melanoma): > 25 µM
- TGI (LOX IMVI melanoma): > 25 µM
- GI50 (M14 melanoma): > 25 µM
- TGI (M14 melanoma): > 25 µM
- GI50 (MALME-3M melanoma): > 25 µM
- TGI (MALME-3M melanoma): > 25 µM
- GI50 (MCF7 breast): > 25 µM
- TGI (MCF7 breast): > 25 µM
- GI50 (MDA-MB-231 breast): > 25 µM
- TGI (MDA-MB-231 breast): > 25 µM
- GI50 (MDA-MB-435): > 25 µM
- TGI (MDA-MB-435): > 25 µM
- GI50 (MOLT-4 leukemia): > 18.7 µM
- TGI (MOLT-4 leukemia): > 25 µM
- GI50 (NCI-H226 lung): > 12.5 µM
- TGI (NCI-H226 lung): > 25 µM
- GI50 (NCI-H23 lung): > 25 µM
- TGI (NCI-H23 lung): > 25 µM
- GI50 (NCI-H460 lung): > 20.4 µM
- TGI (NCI-H460 lung): > 25 µM
- GI50 (NCI-H522 lung): > 25 µM
- TGI (NCI-H522 lung): > 25 µM
- GI50 (NCI/ADR-RES ovarian): > 25 µM
- TGI (NCI/ADR-RES ovarian): > 25 µM
- GI50 (OVCAR-3 ovarian): > 25 µM
- TGI (OVCAR-3 ovarian): > 25 µM
- GI50 (OVCAR-4 ovarian): > 25 µM
- TGI (OVCAR-4 ovarian): > 25 µM
- GI50 (OVCAR-5 ovarian): > 25 µM
- TGI (OVCAR-5 ovarian): > 25 µM
- GI50 (OVCAR-8 ovarian): > 25 µM
- TGI (OVCAR-8 ovarian): > 25 µM
- GI50 (PC-3 prostate): > 25 µM
- TGI (PC-3 prostate): > 25 µM
- GI50 (RPMI-8226 leukemia): > 25 µM
- TGI (RPMI-8226 leukemia): > 25 µM
- GI50 (RXF 393 renal): 8.4 µM
- TGI (RXF 393 renal): > 25 µM
- GI50 (SF-268 CNS): > 25 µM
- TGI (SF-268 CNS): > 25 µM
- GI50 (SF-295 CNS): > 25 µM
- TGI (SF-295 CNS): > 25 µM
- GI50 (SF-539 CNS): > 25 µM
- TGI (SF-539 CNS): > 25 µM
- GI50 (SK-MEL-2 melanoma): > 25 µM
- TGI (SK-MEL-2 melanoma): > 25 µM
- GI50 (SK-MEL-28 melanoma): > 25 µM
- TGI (SK-MEL-28 melanoma): > 25 µM
- GI50 (SK-MEL-5 melanoma): > 25 µM
- TGI (SK-MEL-5 melanoma): > 25 µM
- GI50 (SK-OV-3 ovarian): > 25 µM
- TGI (SK-OV-3 ovarian): > 25 µM
- GI50 (SN12C renal): > 25 µM
- TGI (SN12C renal): > 25 µM
- GI50 (SNB-19 CNS): > 25 µM
- TGI (SNB-19 CNS): > 25 µM
- GI50 (SNB-75 CNS): 3.19 µM
- TGI (SNB-75 CNS): > 25 µM
- GI50 (SR leukemia): > 17.7 µM
- TGI (SR leukemia): > 25 µM
- GI50 (SW-620 colon): > 25 µM
- TGI (SW-620 colon): > 25 µM
- GI50 (T-47D breast): > 25 µM
- TGI (T-47D breast): > 25 µM
- GI50 (TK-10 renal): > 25 µM
- TGI (TK-10 renal): > 25 µM
- GI50 (U251 CNS): > 25 µM
- TGI (U251 CNS): > 25 µM
- GI50 (UACC-257 melanoma): > 25 µM
- TGI (UACC-257 melanoma): > 25 µM
- GI50 (UACC-62 melanoma): > 25 µM
- TGI (UACC-62 melanoma): > 25 µM
- GI50 (UO-31 renal): > 25 µM
- TGI (UO-31 renal): > 25 µM

— PubChem BioAssay (NCI)
